Results reported in a melting point compilation (Tetko et al.; mined from patent text by program, amines drawn as free bases though some values may be those of a salt).

SMILES	melting point [°C]
CC(Oc1cc(F)cc(F)c1)C1=NCCN1 (configuration not stated)	134
CCOC(=O)C(NS(=O)(=O)c1ccc(C)cc1)C1CCOC1 (configuration not stated)	104 to 105
CC(C)(C)OC(=O)N[C@H]1CNC1=O	173 to 175
CCCCCCCC(=O)c1ccc(CCO)cc1	47.4
CC(C)(C)OC(=O)N1CCC(CCN2C(=O)C3(COc4cc5c(cc43)OCO5)c3ccccc32)CC1 (configuration not stated)	173 to 175
Nc1nn(Cc2ccccc2)c2nc3n(c(=O)c12)CCS3	233 to 236
O=c1n(CC(F)(F)F)c2ccccc2n1C1CCN(CCCCN2Cc3cc(Cl)ccc3S2(=O)=O)CC1	237 to 239
ClCC1OCC(OCc2ccccc2)CO1 (configuration not stated)	38 to 39
S=C=Nc1ccc2sc(-c3cccs3)nc2c1	147 to 149
CCNc1nc(=O)n(Cc2ccc(OC)c(OC3CCCC3)c2)c2nc(C(C)C)[nH]c12	110 to 115
Cc1csn(-c2ccc(Cl)cc2)c1=O	157 to 159
O=c1[nH]c2cc3[nH]c(=O)oc3cc2[nH]1	> 360
CS(=O)(=O)c1ccc(-c2cnn(-c3ccccc3F)c(=O)c2-c2ccc(F)cc2)cc1	96 to 103
CC(Br)=C(Br)CC(O)(Cn1cncn1)C1(Cl)CC1 (configuration not stated)	55 to 56
CCCCS(=O)c1nc[nH]n1 (configuration not stated)	82 to 83
CCSc1nc2c(C)sc(C(=O)O)c2n1Cc1ccc(-c2ccccc2-c2nnnn2C(c2ccccc2)(c2ccccc2)c2ccccc2)cc1	138 to 140
Nc1nc2cc(Cl)c(Cl)c(Cl)c2[nH]1	255 to 258
O=C1NC(=O)C(CC#Cc2ccc(Cl)cc2)(S(=O)(=O)c2ccc(F)cc2)S1 (configuration not stated)	176 to 177
N#Cc1nc2ccc(Oc3ccc(C(F)(F)F)cc3Cl)cc2[nH]1	192

SMILES	melting point [°C]
N=C(N)NC(=O)Cn1c(Cc2ccco2)ccc1-c1ccccc1	80 to 82
CCc1cc(=O)c(C(=O)OC)c(CC)[nH]1	124 to 127
C=CCOc1nc(SC)nc(NC(C)C)c1[N+](=O)[O-]	51 to 54
Cc1ccccc1CC(=NC#N)NC(NC(=O)Cc1ccc(Cl)cc1)C(C)(C)C (configuration not stated)	183 to 185
CCCCCCCCCC[C@H](O)c1ccc2ccccc2c1	53 to 54
Clc1ccccc1N=C1NCCN1	133 to 134
Cn1c(=O)oc(=O)c2ccc(F)cc21	158 to 160
CCCCCCCCCCNC(=O)c1cc(N)cc(C(=O)NCCCCCCCCCC)c1	188 to 189
CCN=C1SC(=CC(=O)O)C(=O)N1CC	148 to 152
C=CCSc1c(O)cc(C)oc1=O	98 to 98.5
NS(=O)C12CC3CC(CC(C3)C1)C2 (configuration not stated)	139 to 141
O=C(O)CCCc1ccc2c(c1)CCC2	57 to 58
CCCCCCCCOc1ccc(CCC(N)(CO)CCC)cc1 (configuration not stated)	43 to 47
CN1CCC(O)(c2cccn2Cc2ccccc2F)CC1	164 to 165
CC(C)(C)NC(=O)N(C=O)Oc1cc(Cl)ccc1Cl	101 to 102
O=C(NCCCN1CCN(c2cccc(Cl)c2)CC1)NC12CC3CC(CC(C3)C1)C2	174 to 175
CC1C(=O)N(c2ccccc2)N=C1N (configuration not stated)	147
Cc1c(-c2cc(CN(C)C)ccc2F)sc2nc(N)[nH]c(=O)c12	230 to 250
Cc1c(-c2ccccc2)c(=O)[nH]c2ccccc12	266 to 268

SMILES	melting point [°C]
Cc1cn(-c2cc(C)c(N)c(Br)c2)c(C)n1	176 to 180
C=CC1C2OCC(O2)C(OCc2ccccc2)C1O (configuration not stated)	88 to 91
COC(=O)CC(NCCCN(C)C)C(=O)O (configuration not stated)	171 to 172
CCCCNS(=O)(=O)CC(O)C(O)C(CC1CCCCC1)NC(=O)c1cnccn1 (configuration not stated)	178 to 180
CC(C)(C)c1ncc(O)cn1	132
Cc1c(C(=O)OC(C)C)sc(C(=O)OC(C)C)c1O	87 to 89
COc1cc2nc(C(C)(C)C)sc2cc1NC(=S)SCCC(=O)O	154 to 156
CCCC(NC(=O)CN1C(=O)N(c2ccc(C)cc2)C2(CCCCC2)C1=O)c1ccccc1 (configuration not stated)	208 to 210
CSC(=S)C1(c2ccncc2)CCCS1 (configuration not stated)	64
Cc1cccc(C)c1O[C@@H]1CCNC[C@H]1O (relative stereo)	131 to 133
CCOC(=O)c1nc(-c2nccs2)cs1	143 to 145
N#Cc1ncc(-c2ccc(Br)cc2)cn1	202 to 204
CC(=O)n1c(=O)n(CCCN2CCN(C(c3ccccc3)c3ccccc3)CC2)c2ccccc21	124
CC(C)OC(=O)Nc1cccc(-c2ccnc3c(C(=O)c4ccccc4)cnn23)c1	116 to 118
CCOC(C)O[C@H]1C(=O)N(C(=O)OCc2ccccc2)[C@H]1c1ccccc1 (some centres not stated)	58 to 60
c1cc2c(cc1CSc1nnc(-c3ccc4c(c3)CCO4)o1)CCO2	130 to 132
Cc1[nH]cc2c(=O)n(-c3ccc(Cl)cc3)nc-2c1-c1ccc(N2CCOCC2)cc1	306 to 315
C[C@]12C[C@H](c3ccc(OCCCCCCl)cc3)[C@@H]3c4ccc(O)cc4CC[C@H]3[C@@H]1CC[C@@H]2O	165
O=C1CCCN1c1ccc(CCN2CCN(c3ccccc3Cl)CC2)cc1	132

Further lines, results first:

melting point [°C]	SMILES
266 to 268	CC(C)n1nc(-c2c(-c3ccccc3)nc(N)nc2-n2cncn2)ccc1=O
178 to 182	O=C(O)c1cncc(-c2ccc(Cl)c(C(=O)NCC34CC5CC(CC(C5)C3)C4)c2)c1
200 to 202	O=C(Nc1ccc2nc(CN3CCCC3)ccc2c1)c1ccc(-c2ccc(Cl)cc2)cc1
169 to 170	CCn1cc(CN(C(=O)C2CCCc3ccc(O)cc32)c2ccc(C(C)C)cc2)cn1 (configuration not stated)
240 to 242	CCn1c(C)c(C)c(=O)c(C(=O)O)c1-c1ccc(Cl)cc1
268 to 269	O=c1ccc2ccc3ccc(Br)cc3c(=O)c2[nH]1
157 to 158	CCN(c1ccc(C)c2cc(-c3ncc(CN4CCN(C(C)=O)CC4)s3)[nH]c12)S(=O)(=O)c1cccs1
143 to 144	CONC(=O)Nc1ccc(-c2sc3c(c2CN(C)C(C)c2ccccn2)c(=O)n(-c2ccccn2)c(=O)n3Cc2c(F)cccc2F)cc1 (configuration not stated)
151	CCOc1ccc2[nH]c(=O)n(C3Cc4ccccc4C3)c2c1
170 to 172	CN(C)c1ccc(-c2nnc(N(C)C)nc2-c2ccc(N(C)C)cc2)cc1
187 to 190	CCOC(=O)c1[nH]c2c(O)cccc2c1C
170 to 172	COc1cc(Nc2nc3cccc(-c4cccc(NC(C)=O)c4)c3o2)cc(OC)c1OC
84	CCCc1c(OCC(O)COc2ccc(CC(=O)O)cc2Br)ccc(C(C)=O)c1O (configuration not stated)
132 to 134	COC(=O)c1cc(Cl)cc(C=O)c1O
150 to 151	O=C(O)C1=NC(c2ccc(Cl)cc2Cl)N(c2ccc(Cl)cc2)C1 (configuration not stated)
229 to 231	NC(=O)c1cc2cccc(N(CC3CC3)S(=O)(=O)c3cccs3)c2[nH]1
115	CC(=NO)c1ccccc1NC(C(N)=O)c1c(Cl)cccc1Cl (configuration not stated)
149 to 150	COc1ccc(Cn2cnc3c(-c4ccco4)nc(C(F)(F)F)nc32)cc1
171	CNc1ccc(C=CC(=O)N2CCc3c([nH]c4ccccc34)C2c2ccc3c(c2)CCO3)cn1 (configuration not stated)
177 to 179	CCCCOC(=O)Cc1ccc(N[C@@H](CCC(N)=O)C(=O)O)cc1
141 to 143	CC(C)(C)OC(=O)CN(Cc1cccc(Cl)c1)S(=O)(=O)c1ccc2c(Cl)cnc(Cl)c2c1
165 to 166	COc1ccc(-c2cc3ccccc3[nH]2)cc1NCc1ccc(O)c([N+](=O)[O-])c1
139	COc1cccc(Oc2c(NS(=O)(=O)c3ccc(C(C)(C)C)cc3)nc(C)nc2OCCO)c1

melting point [°C]	SMILES
199	Cc1cc(-c2cc(C(F)(F)F)n3ncc(C(=O)Nc4cccc(S(=O)(=O)N5CCN(C)CC5)c4)c3n2)ccc1C(F)(F)F
139 to 140	CCOC(=O)c1cccc(-c2ccc(F)c3cc(CBr)sc23)c1
126	CCCCCCCCOC(=O)Oc1ccc(C(=O)O)cc1
231	Cn1nc(-c2cnc(N)nc2-c2ccc(F)c(F)c2)ccc1=O
246 to 248	COc1ccc(-c2nc(C)c(-c3cccnc3)[nH]2)cc1OC
229 to 231	CCc1nc2c(N)nc3cc(-c4cccnc4)ccc3c2n1CC1CCN(C(=O)OC(C)(C)C)CC1
50 to 53	C=CCOC(=O)c1ccc(N=C(SC)c2ccc(OC)c(C34CC5CC(CC(C5)C3)C4)c2)cc1
233 to 235	Cc1n[nH]c(COc2nn3c(-c4ccccc4)nnc3cc2-c2ccccc2)n1
175 to 178	COc1ccc(C(=O)Nc2ccc(F)cc2)cc1NC(=S)Nc1cc(Cl)cc(Cl)c1
> 300	CC(=O)Nc1nc(O)c2cc(C=Cc3ccc(C(=O)OC(C)=O)cc3)cnc2n1
194 to 196	COC(=O)c1sccc1S(=O)(=O)NC(=O)Nc1nc(OC)c2cc(C)oc2n1
254 to 256	O=C(O)c1ccc(-c2ccc(O)c(F)c2)cc1
112 to 114	CN1CCCC1CCNc1nccc(Oc2ccc(NC(=O)c3cc(F)cc(N4CCCCC4)c3)c3ccccc23)n1 (configuration not stated)
194 to 197	C[C@@H](Nc1ncnc2[nH]c(-c3ccc(CN(CCO)CCO)cc3)cc12)c1ccccc1
96 to 97	COc1ccc(-n2nc(C(C)C)cc2-c2ccc(OCCNS(C)(=O)=O)cc2)cn1
168	CCSc1ccc(NC(=S)NC(=O)OC)c(N)c1
355 to 357	O=C(O)c1cccc2c(=O)c3cc(I)ccc3[nH]c12
127 to 128	CN(C(=O)c1cccc(S(=O)(=O)N(C)c2ccc(Br)cc2)c1)c1ccc(Cl)cc1F
185 to 187	COc1cc(C(=O)N(C(C)C)C2CCCCC2)ccc1Cn1ccc2ncnc-2c1C
246 to 248	CCOC(=O)c1cnc(Nc2ccc(N(C)C)cc2)[nH]c1=O
90 to 92	CCCCS(=O)(=O)NC1Cc2ccc(C(C)=O)cc2C1 (configuration not stated)
> 250	O=C(O)/C=C/c1ccc(-c2nc3c(=O)n(CCC4CCCCCC4)c(=O)n(CCC4CCCCCC4)c3[nH]2)cc1
